How the values were obtained:
[1] = target: T1, Progesterone receptor (Homo sapiens) (UniProt P06401)
T1 sequence (whole entry): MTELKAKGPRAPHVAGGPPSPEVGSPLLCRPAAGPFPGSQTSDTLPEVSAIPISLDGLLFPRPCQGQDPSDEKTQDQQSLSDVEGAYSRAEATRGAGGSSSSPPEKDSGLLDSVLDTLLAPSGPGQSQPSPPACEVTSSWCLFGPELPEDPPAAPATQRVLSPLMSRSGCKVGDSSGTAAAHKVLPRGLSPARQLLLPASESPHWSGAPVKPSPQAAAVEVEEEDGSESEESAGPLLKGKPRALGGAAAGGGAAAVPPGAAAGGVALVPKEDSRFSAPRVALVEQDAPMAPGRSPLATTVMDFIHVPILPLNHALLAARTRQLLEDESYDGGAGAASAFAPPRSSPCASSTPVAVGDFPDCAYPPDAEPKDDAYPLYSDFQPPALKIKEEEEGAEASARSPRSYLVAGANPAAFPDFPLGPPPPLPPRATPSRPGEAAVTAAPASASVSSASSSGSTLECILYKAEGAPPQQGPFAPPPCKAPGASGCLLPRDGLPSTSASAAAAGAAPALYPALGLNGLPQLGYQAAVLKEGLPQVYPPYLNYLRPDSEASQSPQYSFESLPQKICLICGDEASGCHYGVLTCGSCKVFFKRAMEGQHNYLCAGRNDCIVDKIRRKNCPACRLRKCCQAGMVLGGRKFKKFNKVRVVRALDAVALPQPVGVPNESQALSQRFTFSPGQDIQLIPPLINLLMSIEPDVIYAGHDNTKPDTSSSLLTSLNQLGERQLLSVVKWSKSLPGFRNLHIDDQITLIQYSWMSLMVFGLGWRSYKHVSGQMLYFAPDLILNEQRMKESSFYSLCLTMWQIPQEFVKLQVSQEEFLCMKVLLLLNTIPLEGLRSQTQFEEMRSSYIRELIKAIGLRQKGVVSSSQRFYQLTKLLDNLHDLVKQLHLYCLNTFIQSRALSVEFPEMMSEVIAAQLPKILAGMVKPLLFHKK
Description: Antagonist activity against human Progesterone receptor by displacement of radioligand

Estrogen receptor beta = Estrogen receptor beta (Homo sapiens, UniProt Q92731); assay: Displacement of radioligand from human ER beta
Chain of Estrogen receptor beta (Q92731 whole entry): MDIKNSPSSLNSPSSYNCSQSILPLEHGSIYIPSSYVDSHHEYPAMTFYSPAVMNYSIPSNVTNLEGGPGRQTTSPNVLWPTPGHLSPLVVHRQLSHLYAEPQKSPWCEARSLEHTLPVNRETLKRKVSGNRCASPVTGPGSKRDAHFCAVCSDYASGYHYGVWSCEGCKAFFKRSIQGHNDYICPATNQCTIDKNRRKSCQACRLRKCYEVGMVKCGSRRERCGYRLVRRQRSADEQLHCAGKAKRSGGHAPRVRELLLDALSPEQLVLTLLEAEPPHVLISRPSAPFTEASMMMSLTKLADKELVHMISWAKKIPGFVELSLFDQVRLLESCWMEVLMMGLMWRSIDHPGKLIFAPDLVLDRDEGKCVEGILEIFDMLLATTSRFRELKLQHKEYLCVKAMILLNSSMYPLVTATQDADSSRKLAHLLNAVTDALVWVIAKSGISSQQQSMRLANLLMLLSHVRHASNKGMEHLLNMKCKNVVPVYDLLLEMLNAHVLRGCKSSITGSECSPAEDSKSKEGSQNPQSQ

Estrogen receptor = target: T2, Estrogen receptor (Homo sapiens, UniProt P03372); assay: Displacement of radioligand from human Estrogen receptor alpha
T2 sequence (P03372 whole entry): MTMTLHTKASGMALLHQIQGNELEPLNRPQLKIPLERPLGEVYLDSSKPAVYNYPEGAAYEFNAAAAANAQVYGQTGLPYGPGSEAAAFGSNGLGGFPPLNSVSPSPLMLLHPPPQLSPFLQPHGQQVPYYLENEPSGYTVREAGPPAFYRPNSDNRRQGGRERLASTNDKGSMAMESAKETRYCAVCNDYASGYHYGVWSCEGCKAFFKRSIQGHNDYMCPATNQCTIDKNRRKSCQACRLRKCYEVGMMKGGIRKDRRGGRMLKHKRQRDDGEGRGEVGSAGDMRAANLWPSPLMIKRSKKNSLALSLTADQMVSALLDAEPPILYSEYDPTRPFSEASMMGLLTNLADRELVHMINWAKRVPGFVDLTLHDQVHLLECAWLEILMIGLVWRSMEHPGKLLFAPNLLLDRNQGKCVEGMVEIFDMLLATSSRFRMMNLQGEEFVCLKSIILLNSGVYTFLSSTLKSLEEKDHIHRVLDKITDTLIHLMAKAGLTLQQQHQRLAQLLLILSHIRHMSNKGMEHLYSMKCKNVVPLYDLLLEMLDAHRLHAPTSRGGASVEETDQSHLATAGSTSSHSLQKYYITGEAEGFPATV

| Compound | Kif [1] | Ki (Estrogen receptor beta) | Ki (Estrogen receptor) |
| --- | --- | --- | --- |
| O=C1CC[C@@]2(Cc3ccccc3)c3ccc(O)cc3CC[C@@H]2C1 | > 1000 nM |  |  |
| CC#C[C@]1(O)CCC2C3CCC4=CC(=O)CC[C@]4(Cc4ccc(C)cc4)C3=CC[C@@]21C (stereo partly drawn) |  | > 10 µM | > 10 µM |

Source: ChEMBL document CHEMBL1135457 (J Med Chem, 2002)
